Data reported in patent publication US10617641B2, “Composition for preventing or treating ischemic diseases, containing liposomes in which VEGF-derived peptides are supported” (INDUSTRIAL COOPERATION FOUNDATION CHONBUK NATIONAL …, priority 2015, dated 2020).

Tested on: myocardial infarction-induced rats
Test: Relative perfusion of the heart (99mTc-tetrofosmin autoradiography) in myocardial infarction model rats
Type: in vivo, Sprague-Dawley rats
Conditions: 200 μL through an apical puncture, after one week
Description: First, 8-week-old Sprague-Dawley rats were purchased from Orientbio Inc., and acclimated for 3 days under conditions such as a temperature of 22±3° C., a relative humidity of 60±20%, an air ventilation cycle of 10 to 20 times/hour, a 12-hour light/dark cycle (light on 08:00 A.M. and light off 08:00 P.M.), sterile feed, and water supplies. […] After a week, ^99mtechnetium (Tc)-tetrofosmin was used as a myocardial perfusion imaging agent to obtain an autoradiographic images of rat hearts, and the relative perfusion was measured using a method represented by the following Equation 1 to evaluate an therapeutic effect of the VEGF-derived peptide. Relative perfusion (%)={(Activity value of ^99mTc-tetrofosmin in cardiac ischemic area)/Activity value of ^99mTc-tetrofosmin in septum)}×100 [Equation 1]
All the subsequent statistical analyses were performed using SAS ver. 9.2 (SAS Institute, Cary, US), the significance of difference was determined using a Duncan's multiple range test (MRT) and ANOVA, and a significant difference at p<0.05 was evaluated. All data was assumed to be significant within a range of 5%, and represented by an average±standard deviation (SD).

“Ac-MRIKPHQGQHI-NH2 [VEGF-derived peptide]” was tested, and the “perfusion-improving effect (relative perfusion) compared to the control (PBS)” value was “significant results were not observed”.
